Experimental data reported in patent US12151999B2, “Small molecule compounds having naphthylamine structure and application thereof” (Hangzhou PhecdaMed Co., Ltd., priority 2021, dated 2024).

Tested on: HEK293Tmtkeima cells
Assay: Functional test of mitophagy inducer (mtKeima imaging, with or without CCCP-induced mitochondrial damage)
Assay type: cell-based, Human
Conditions: HEK293Tmtkeima cells, 5 uM or 10 uM CCCP to induce mitochondrial damage; number of cells in which damaged mitophagy occurs/number of all cells
Description: Group 1: Human embryonic kidney transformed cells HEK293Tmtkeima cells were treated with 0 μM, 1.25 μM, 2.5 μM, 5 μM and 10 μM CCCP respectively, and seeded in a 96-well black ELISA PLATE at 1.5*10^5 cells/ml, 100 μL per well. Compound I-2 was added after 25 hours, and 3 replicates were set. At 37° C., under 5% CO2 incubation conditions, photographs were taken every few hours with biotek cytation 5 for a total of 20 hours, with the bright field as the focusing channel, and 9 images were taken per hole, and the images were processed using the instrument software.
Group 2: Human embryonic kidney transformed cells HEK293Tmtkeima cells were seeded in a 96-well black ELISA PLATE at […], 100 μL per well; compounds I-1˜I-44 and UMI-77 were added after 25 hours, set up 3 replicates; under 37° C., 5% CO2 culture conditions, use biotek every few hours Cytation 5 was used to take photos, a total of 20 hours of shooting. In another group of cells under the same conditions, human embryonic kidney-transformed cells HEK293Tmtkeima cells were seeded in a 96-well black enzyme plate at 1.5*10^5 cells/ml, 100 μl per well; after 24 hours, 5 uM or 10 uM CCCP (Carbonyl cyanide) was first added 3-chlorophenylhydrazone) to induce mitochondrial damage, then add I-1˜I-44, UMI-77 1 hour later, set up 3 repetitions; under 37° C., 5% CO2 culture conditions, pictures were taken every few hours with biotek cytation 5, photographs were taken for 20 hours. Another group of human embryonic kidney transformed cells HEK293Tmtkeima cells was seeded at 1.5*10^5 cells/ml in 96-well black ELISA PLATE at 100 μl per well under the same conditions, 24 hours later 5 uM or 10 uM CCCP (Carbonyl cyanide 3-chlorophenylhydrazone) was first added to induce mitochondrial damage, after 1 hour then add I-1 to I-44, UMI-77 and set up 3 replicates. At 37° C., under 5% CO2 incubation conditions, pictures were taken every few hours with biotek cytation 5, photographs were taken for 20 hours, with the bright field as the focusing channel for both groups, and 9 images were taken per hole, and the images were processed using the instrument software.

Structure (SMILES) | The ability of selection to induce autophagy in damaged mitochondria
O=C(O)C[S+]([O-])c1cc(N(C2CC2)S(=O)(=O)c2ccc(Br)cc2)c2ccccc2c1O (stereo not drawn) [Compound I-3] | ++ (moderate ability to selectively induce autophagy in damaged mitochondria (number of cells in which damaged mitophagy occurs/number of all cells in the range of 0.2 to 0.3))
O=C(O)C[S+]([O-])c1cc(N(C2COC2)S(=O)(=O)c2ccc(Br)cc2)c2ccccc2c1O (stereo not drawn) [Compound I-4] | + (weak ability to selectively induce autophagy in damaged mitochondria (number of cells in which damaged mitophagy occurs/number of all cells in the range of 0.1 to 0.2))
NC(=O)C[S+]([O-])c1cc(NS(=O)(=O)c2ccc(Br)cc2)c2ccccc2c1O (stereo not drawn) [Compound I-5] | + (weak ability to selectively induce autophagy in damaged mitochondria (number of cells in which damaged mitophagy occurs/number of all cells in the range of 0.1 to 0.2))
NC(=S)C[S+]([O-])c1cc(NS(=O)(=O)c2ccc(Br)cc2)c2ccccc2c1O (stereo not drawn) [Compound I-6] | + (weak ability to selectively induce autophagy in damaged mitochondria (number of cells in which damaged mitophagy occurs/number of all cells in the range of 0.1 to 0.2))
O=S(=O)(Cc1nn[nH]n1)c1cc(NS(=O)(=O)c2ccc(Br)cc2)c2ccccc2c1O [Compound I-7-2] | + (weak ability to selectively induce autophagy in damaged mitochondria (number of cells in which damaged mitophagy occurs/number of all cells in the range of 0.1 to 0.2))
O=S(=O)(Nc1cc([S+]([O-])Cc2nnc[nH]2)c(O)c2ccccc12)c1ccc(Br)cc1 (stereo not drawn) [Compound I-8] | +++ (strong ability to selectively induce autophagy in damaged mitochondria (number of cells in which damaged mitophagy occurs/number of all cells >0.30))
O=C(O)C[S+]([O-])c1cc(NS(=O)(=O)c2cccs2)c2ccccc2c1O (stereo not drawn) [Compound I-13-1] | +++ (strong ability to selectively induce autophagy in damaged mitochondria (number of cells in which damaged mitophagy occurs/number of all cells >0.30))
O=C(O)CS(=O)(=O)c1cc(NS(=O)(=O)c2cccs2)c2ccccc2c1O [Compound I-13-2] | ++ (moderate ability to selectively induce autophagy in damaged mitochondria (number of cells in which damaged mitophagy occurs/number of all cells in the range of 0.2 to 0.3))
O=C(O)C[S+]([O-])c1cc(NS(=O)(=O)c2ccc(C(F)(F)F)cc2)c2ccccc2c1O (stereo not drawn) [Compound I-14-1] | ++ (moderate ability to selectively induce autophagy in damaged mitochondria (number of cells in which damaged mitophagy occurs/number of all cells in the range of 0.2 to 0.3))
O=C(O)CS(=O)(=O)c1cc(NS(=O)(=O)c2ccc(C(F)(F)F)cc2)c2ccccc2c1O [Compound I-14-2] | ++ (moderate ability to selectively induce autophagy in damaged mitochondria (number of cells in which damaged mitophagy occurs/number of all cells in the range of 0.2 to 0.3))
COc1ccc(S(=O)(=O)Nc2cc([S+]([O-])CC(=O)O)c(O)c3ccccc23)cc1 (stereo not drawn) [Compound I-15-1] | + (weak ability to selectively induce autophagy in damaged mitochondria (number of cells in which damaged mitophagy occurs/number of all cells in the range of 0.1 to 0.2))
O=C(O)C[S+]([O-])c1cc(NS(=O)(=O)c2ccc(Oc3ccccc3)cc2)c2ccccc2c1O (stereo not drawn) [Compound I-16-1] | ++ (moderate ability to selectively induce autophagy in damaged mitochondria (number of cells in which damaged mitophagy occurs/number of all cells in the range of 0.2 to 0.3))
O=C(O)C[S+]([O-])c1cc(NS(=O)(=O)c2ccc(Cl)c(Cl)c2)c2ccccc2c1O (stereo not drawn) [Compound I-17-1] | +++ (strong ability to selectively induce autophagy in damaged mitochondria (number of cells in which damaged mitophagy occurs/number of all cells >0.30))
O=C(O)C[S+]([O-])c1cc(NS(=O)(=O)c2ccc(N3CCCC3)cc2)c2ccccc2c1O (stereo not drawn) [Compound I-18-1] | + (weak ability to selectively induce autophagy in damaged mitochondria (number of cells in which damaged mitophagy occurs/number of all cells in the range of 0.1 to 0.2))
O=C(O)C[S+]([O-])c1cc(NS(=O)(=O)c2cc3ccccc3s2)c2ccccc2c1O (stereo not drawn) [Compound I-19-1] | ++ (moderate ability to selectively induce autophagy in damaged mitochondria (number of cells in which damaged mitophagy occurs/number of all cells in the range of 0.2 to 0.3))
O=C(O)C[S+]([O-])c1cc(NS(=O)(=O)c2ccc(C3CC3)cc2)c2ccccc2c1O (stereo not drawn) [Compound I-20-1] | ++ (moderate ability to selectively induce autophagy in damaged mitochondria (number of cells in which damaged mitophagy occurs/number of all cells in the range of 0.2 to 0.3))
O=C(O)C[S+]([O-])c1cc(NS(=O)(=O)c2ccc(OC(F)(F)F)cc2)c2ccccc2c1O (stereo not drawn) [Compound I-21-1] | +++ (strong ability to selectively induce autophagy in damaged mitochondria (number of cells in which damaged mitophagy occurs/number of all cells >0.30))
O=C(O)C[S+]([O-])c1cc(NS(=O)(=O)c2ccc([N+](=O)[O-])cc2)c2ccccc2c1O (stereo not drawn) [Compound I-22-1] | + (weak ability to selectively induce autophagy in damaged mitochondria (number of cells in which damaged mitophagy occurs/number of all cells in the range of 0.1 to 0.2))
O=C(O)CS(=O)(=O)c1cc(NS(=O)(=O)c2cccc(-c3ccccc3)c2)c2ccccc2c1O [Compound I-23-2] | ++ (moderate ability to selectively induce autophagy in damaged mitochondria (number of cells in which damaged mitophagy occurs/number of all cells in the range of 0.2 to 0.3))
O=C(O)C[S+]([O-])c1cc(NS(=O)(=O)c2cccc(F)c2)c2ccccc2c1O (stereo not drawn) [Compound I-24-1] | + (weak ability to selectively induce autophagy in damaged mitochondria (number of cells in which damaged mitophagy occurs/number of all cells in the range of 0.1 to 0.2))
CN=S(=O)(Nc1cc([S+]([O-])CC(=O)O)c(O)c2ccccc12)c1ccc(Br)cc1 (stereo not drawn) [Compound I-25-1] | +++ (strong ability to selectively induce autophagy in damaged mitochondria (number of cells in which damaged mitophagy occurs/number of all cells >0.30))
CN=S(=O)(c1ccc(Br)cc1)N(C)c1cc([S+]([O-])CC(=O)O)c(O)c2ccccc12 (stereo not drawn) [Compound I-26] | ++ (moderate ability to selectively induce autophagy in damaged mitochondria (number of cells in which damaged mitophagy occurs/number of all cells in the range of 0.2 to 0.3))
O=C(O)C[S+]([O-])c1cc(N2CCN=S2(=O)c2ccc(Br)cc2)c2ccccc2c1O (stereo not drawn) [Compound I-27] | ++ (moderate ability to selectively induce autophagy in damaged mitochondria (number of cells in which damaged mitophagy occurs/number of all cells in the range of 0.2 to 0.3))
O=C(O)C[S+]([O-])c1cc(N2CCCN=S2(=O)c2ccc(Br)cc2)c2ccccc2c1O (stereo not drawn) [Compound I-28] | + (weak ability to selectively induce autophagy in damaged mitochondria (number of cells in which damaged mitophagy occurs/number of all cells in the range of 0.1 to 0.2))
O=C(O)C[S+]([O-])c1cc(NS(=O)(=O)c2ccc(Br)cc2)c2cc(Br)ccc2c1O (stereo not drawn) [Compound I-29] | +++ (strong ability to selectively induce autophagy in damaged mitochondria (number of cells in which damaged mitophagy occurs/number of all cells >0.30))
N#Cc1ccc2c(O)c([S+]([O-])CC(=O)O)cc(NS(=O)(=O)c3ccc(Br)cc3)c2c1 (stereo not drawn) [Compound I-31] | + (weak ability to selectively induce autophagy in damaged mitochondria (number of cells in which damaged mitophagy occurs/number of all cells in the range of 0.1 to 0.2))
COP(=O)(Nc1cc([S+]([O-])CC(=O)O)c(O)c2ccccc12)c1ccc(Br)cc1 (stereo not drawn) [Compound I-33] | ++ (moderate ability to selectively induce autophagy in damaged mitochondria (number of cells in which damaged mitophagy occurs/number of all cells in the range of 0.2 to 0.3))
